Laboratory results published in patent EP0107350A1, “Sulfon amides” (Beecham Wuelfing GmbH & Co KG, priority 1982, dated 1984).

test system: Guinea pigs; test: Electrostimulation test (antiarrhythmic effect; voltage needed to induce extrasystoles/arrhythmias by electrostimulation of the right ventricle); assay type: in vivo; conditions: anaesthetized Guinea pigs (Urethane 1.2 g/kg i.p.), substances given intraduodenally 30 min before stimulation; 6 treated vs 6 control animals; * = statistically significant p<0.05; dose not given
Procedure: According to the method described by […]. and PAPP, G J., (Naunyn-Schmiedebergs Arch. exp. Path. Pharmak. 245, 70 (1963), arrhythmias are induced in Guinea pigs by electostimulation of the right ventricle of the heart. The animals are anaesthetized with Urethane (1.2 g/kg i.p.) and artificially respired before a needle electrode is inserted in the right ventricle of the heart. Substances are given intraduodenally 30 min before the stimulation. The voltage needed for induction of extrasystoles in 6 control animals (n=6) is compared with that required for induction of arrhythmias in 6 treated animals (n=6). The difference is statistically evaluated by the unpaired t-test (STUDENT). This method was used to evaluate the compounds of the present invention. In Tables 1 and 2, ^* means statistically significant p<0.05.

| SMILES | % Increase in Test Voltage |
| --- | --- |
| Cc1cc(C)c(S(=O)(=O)NC(C)CCCN2CCCCC2C)c(C)c1 (stereo not shown) [(1)] | 89.4* % |
| CC(CN1CCCCC1)NS(=O)(=O)c1cc(Cl)c(Cl)cc1Cl.Cl (stereo not shown) [(2), 1-[2-(2,4,5-trichlorobenzenesulphonamido)-propyl] piperidinium chloride] | 29.6* % |
| Cc1cc(C)c(S(=O)(=O)NC(C)CCCN2CC(C)CC2C)c(C)c1 (stereo not shown) [(3)] | 87.7* % |
| CC1CCCCN1CC(O)CNS(=O)(=O)c1cc(Cl)c(Cl)cc1Cl (stereo not shown) [(4)] | 60.6* % |
| Cc1cc(C)c(S(=O)(=O)NCC(O)CN2CCCC2)c(C)c1 (stereo not shown) [(5)] | 29.5* % |
| Cc1cc(C)c(S(=O)(=O)NCC(O)CN2CC(C)CC2C)c(C)c1 (stereo not shown) [(6)] | 12.1* % |
| Cc1cc(C)c(S(=O)(=O)NCC(O)CN2CCCCC2C)c(C)c1 (stereo not shown) [(7)] | 13.4* % |
